Measurements as given in patent US6391888B1, “Topical anesthetics useful for treating cancer” (Mayo Foundation for Medical Education and Research, priority 1999, dated 2002).

Tests used:
[1] = tested on: calcium-activated, phospholipid-dependent protein kinase (PKC); conditions: data suggesting; M. K. Tomoda et al., 1990; cited from earlier work
[2] = target: PKCδ (Homo sapiens, UniProt Q05655); test: lidocaine binding to and modulation of PKCδ (applicant's discovery, no method given); assay type: biochemical; conditions: calcium independent PKC isozyme PKCδ; qualitative statement
Chain of PKCδ (Q05655 whole entry): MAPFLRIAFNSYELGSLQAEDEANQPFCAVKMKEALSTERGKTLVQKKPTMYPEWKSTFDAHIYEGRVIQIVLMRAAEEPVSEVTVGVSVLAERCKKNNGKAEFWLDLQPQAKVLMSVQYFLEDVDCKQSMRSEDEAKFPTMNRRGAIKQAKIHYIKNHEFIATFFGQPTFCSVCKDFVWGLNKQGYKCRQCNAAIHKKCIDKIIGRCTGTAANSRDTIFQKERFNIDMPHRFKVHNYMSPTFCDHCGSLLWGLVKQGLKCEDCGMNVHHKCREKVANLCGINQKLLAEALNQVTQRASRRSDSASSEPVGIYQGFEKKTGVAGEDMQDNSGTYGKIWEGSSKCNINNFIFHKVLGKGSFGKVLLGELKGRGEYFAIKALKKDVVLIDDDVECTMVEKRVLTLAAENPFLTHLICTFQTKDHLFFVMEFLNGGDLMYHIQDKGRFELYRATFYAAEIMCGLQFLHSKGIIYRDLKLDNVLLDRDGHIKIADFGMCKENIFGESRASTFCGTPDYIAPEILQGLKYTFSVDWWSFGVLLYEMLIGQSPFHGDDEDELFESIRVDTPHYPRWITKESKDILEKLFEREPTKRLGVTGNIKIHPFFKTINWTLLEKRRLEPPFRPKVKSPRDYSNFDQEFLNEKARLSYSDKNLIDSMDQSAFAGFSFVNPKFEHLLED

In the case of `CCN(CC)CC(=O)Nc1c(C)cccc1C` [lidocaine, (2-diethylamino)-N-(2,6-dimethylphenyl)-acetamide], the “inhibition of calcium-activated, phospholipid-dependent protein kinase (PKC)” value [1] is given as “inhibits” and the “binding to and modulation of the effects of PKCδ” value [2] is given as “binds to and modulates (e.g. inhibits)”.
